Assays:
Experiment in all cases: cell-based
EP2 = EP2 (Homo sapiens, UniProt P43116);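 further: SF295 glioblastoma cells with endogenous EP2 only, PGE2-stimulated cAMP accumulation read by HTRF competitive immunoassay, 45 min pre-incubation then 30 min at room temperature, IBMX in buffer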
PTRGER4 (EP4) = PTRGER4 (EP4) (Homo sapiens, UniProt P35408);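 further: assay plate preincubated 15 min at 37 °C, after which PGE2 was added at 20 nM final and incubation continued 120 min at 37 °C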
EP4 = EP4 (Homo sapiens, UniProt P35408);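 further: inhibition of PGE2-evoked (6 nM) cAMP accumulation in BT549 breast cancer cells endogenously expressing EP4, cAMP read by HTRF competitive immunoassay after 30 min at room temperature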
Chain of EP4 (P35408 whole entry): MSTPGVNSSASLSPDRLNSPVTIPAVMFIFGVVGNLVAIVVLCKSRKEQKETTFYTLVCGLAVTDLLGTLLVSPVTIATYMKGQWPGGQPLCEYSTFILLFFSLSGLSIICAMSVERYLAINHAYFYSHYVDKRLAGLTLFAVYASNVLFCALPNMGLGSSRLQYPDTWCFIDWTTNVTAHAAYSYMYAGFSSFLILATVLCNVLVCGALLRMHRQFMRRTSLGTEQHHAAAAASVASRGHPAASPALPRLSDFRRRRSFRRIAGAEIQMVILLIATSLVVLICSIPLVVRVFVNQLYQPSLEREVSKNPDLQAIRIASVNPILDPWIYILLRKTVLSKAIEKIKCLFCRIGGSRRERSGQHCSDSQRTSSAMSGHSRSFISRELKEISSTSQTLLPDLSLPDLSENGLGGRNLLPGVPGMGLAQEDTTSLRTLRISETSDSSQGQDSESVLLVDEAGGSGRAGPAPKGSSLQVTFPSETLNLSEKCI
From the text: Human tumor cell lines expressing endogenously either EP4 or EP2 are used and cAMP accumulation in cells upon PGE2 stimulation is monitored.
As a detection method for cAMP the HTRF (homogeneous time resolved fluorescence) Cisbio kit (HTRF cAMP dynamic 2 kit 20′000 tests Cisbio Cat. #62AM4PEC) was used, which is based on a competitive immunoassay using a Cryptate-labeled anti-cAMP antibody and d2-labeled cAMP. Native cAMP produced by cells or unlabeled cAMP (for the standard curve) compete with exogenously added d2-labeled cAMP (acceptor) for binding to monoclonal anti-cAMP-Eu3+ Cryptate (donor). A FRET signal (Fluorescence Resonance Energy Transfer) is obtained only if the labeled anti-cAMP antibody binds the d2 labelled cAMP, thus the specific signal (i.e. energy transfer) is inversely proportional to the concentration of cAMP in the standard or sample.
The BT549 cells (NCI/No. 0507282) are detached from culture dishes with a cell dissociation buffer (Invitrogen, 13151-014), and collected in growing medium (GM: RPM11640 (Invitrogen 21875)/10% FCS, 1% Penicilin/streptomycin). Cells are counted washed and resuspended in assay buffer (AB; HBSS, 20 mM HEPES, 0.2% BSA; 2 mM IBMX). 4′000 cells in 5 μl of AB are seeded per well of a small volume 384 well plate (black with flat bottom, Greiner 784076).
Stock solutions of test compounds are made at a concentration of 10 mM in DMSO, and serially diluted in DMSO to concentrations required for inhibition dose response curves (tested concentration range 30 μM-0.4 nM; 30 μM-0.015 nM or 1 μM-0.01 nM).
PGE2 (Cayman 14010, stock solution: 6 μM in DMSO) is used as agonist at 6 nM final concentration, corresponding to EC80.
Two point five microliters of diluted compounds are transferred into the assay plate. Plate is pre-incubated 45 minutes at room temperature. Subsequently, 2.5 microliters of PGE2 (final conc. 6 nM) are transferred into the assay plate. Plate is incubated 30 minutes at room temperature.
For each compound concentration the percentage of cAMP compared to DMSO control value as average±STDEV (each concentration is measured in duplicate) is calculated.
When compounds were measured multiple times, mean values are given.

PTGER2 (EP2) = PTGER2 (EP2) (Homo sapiens, UniProt P43116)
Chain of PTGER2 (EP2) (P43116 whole entry): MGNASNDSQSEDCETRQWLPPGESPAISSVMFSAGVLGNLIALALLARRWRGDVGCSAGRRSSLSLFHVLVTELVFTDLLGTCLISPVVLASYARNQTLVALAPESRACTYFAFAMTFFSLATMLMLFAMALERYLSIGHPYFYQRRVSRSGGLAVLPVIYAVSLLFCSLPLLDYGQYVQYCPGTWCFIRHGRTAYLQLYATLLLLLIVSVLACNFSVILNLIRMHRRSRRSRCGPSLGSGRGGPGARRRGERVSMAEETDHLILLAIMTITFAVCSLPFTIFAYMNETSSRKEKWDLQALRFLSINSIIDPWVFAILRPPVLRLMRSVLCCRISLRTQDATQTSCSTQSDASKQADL

Chain of PTRGER4 (EP4) (P35408 whole entry): as the sequence (P35408 whole entry) above
Chain of EP2 (P43116 whole entry): as the sequence (P43116 whole entry) above

Compound | IC50 (EP2) [nM] | IC50 (PTRGER4 (EP4)) [nM] | IC50 (EP4) [nM] | IC50 (PTGER2 (EP2)) [nM]
CCCCOc1cc(-c2cc(NCCc3c(F)cc(Br)cc3F)ncn2)ccc1C(=O)O [Example 43, 4-{6-[2-(4-Bromo-2,6-difluoro-phenyl)-ethylamino]-pyrimidin-4-yl}-2-butoxy-benzoic acid] | 66 | 208 | 514 | 55
CCOc1cc(-c2cc(NCCc3c(F)cc(Br)cc3F)ncn2)sc1CCC(=O)O [Example 44, 3-(5-{6-[2-(4-Bromo-2,6-difluoro-phenyl)-ethylamino]-pyrimidin-4-yl}-3-ethoxy-thiophen-2yl)-propionic acid] | 120 | 62 | 38 | 44
CCOc1cc(-c2cc(NCCc3c(F)cc(Br)cc3F)ncn2)ccc1OCCC(=O)O [Example 45, 3-(4-{6-[2-(4-Bromo-2,6-difluoro-phenyl)-ethylamino]-pyrimidin-4-yl}-2-ethoxy-phenoxy)-propionic acid] | 184 | 50 | 165 | 81
O=C(O)c1cccc2[nH]c(-c3cc(NCCc4c(F)cc(Br)cc4F)ncn3)cc12 [Example 46, 2-{6-[2-(4-Bromo-2,6-difluoro-phenyl)-ethylamino]-pyrimidin-4-yl}-1H-indole-4-carboxylic acid] | 303 | 148 | 470 | 105
CCOc1cc(-c2cc(NCCc3c(F)cc(Br)cc3F)ncn2)sc1/C=C/C(=O)O [Example 47, (E)-3-(5-{6-[2-(4-Bromo-2,6-difluoro-phenyl)-ethylamino]-pyrimidin-4-yl}-3-ethoxy-thiophen-2yl)-acrylic acid] | 129 | 11 | 85 | 50
CCOc1cc(-c2cc(NCCc3c(F)cc(Br)cc3F)ncn2)sc1CC(=O)O [Example 48, (5-{6-[2-(4-Bromo-2,6-difluoro-phenyl)-ethylamino]-pyrimidin-4-yl}-3-ethoxy-thiophen-2-yl)-acetic acid] | 46 | 25 | 51 | 28
CCOc1cc(-c2cc(NCCc3c(F)cc(Br)cc3F)ncn2)ccc1CC(=O)O [Example 49, (4-{6-[2-(4-Bromo-2,6-difluoro-phenyl)-ethylamino]-pyrimidin-4-yl}-2-ethoxy-phenyl)-acetic acid] | 246 | 143 | 159 | 139
CCOc1cc(-c2cc(NCCc3ccc(Br)cc3OC)ncn2)ccc1C(=O)O [Example 50, 4-{6-[2-(4-Bromo-2-methoxy-phenyl)-ethylamino]-pyrimidin-4-yl}-2-ethoxy-benzoic acid] | 259 | 1310 | 910 | 264
CCc1cc(-c2cc(NCCc3c(F)cccc3F)ncn2)sc1C(=O)O [Example 53, 5-{6-[2-(2,6-Difluoro-phenyl)-ethylamino]-pyrimidin-4-yl}-3-ethyl-thiophene-2-carboxylic acid] | 63 | 472 | 221 | 437
CCOc1cc(-c2cc(NCCc3ccc(Br)cc3)ncn2)sc1C(=O)O [Example 54, 5-{6-[2-(4-Bromo-phenyl)-ethylamino]-pyrimidin-4-yl}-3-ethoxy-thiophene-2-carboxylic acid] | 31 | 17 | 10 | 60
CCOc1cc(-c2cc(NCCc3ccccc3C)ncn2)sc1C(=O)O [Example 55, 3-Ethoxy-5-[6-(2-o-tolyl-ethylamino)-pyrimidin-4-yl]-thiophene-2-carboxylic acid] | 65 | 1000 | 396 | 89
CCOc1cc(-c2cc(NCCc3ccccc3F)ncn2)sc1C(=O)O [Example 56, 3-Ethoxy-5-{6-[2-(2-fluoro-phenyl)-ethylamino]-pyrimidin-4-yl}-thiophene-2-carboxylic acid] | 512 | 3030 | 775 | 717

Reference: patent publication US11712438B2, “Phenyl derivatives as PGE2 receptor modulators” (IDORSIA PHARMACEUTICALS LTD, priority 2017, dated 2023)
